What was measured:
[1] = Particle size before and after micronization, HELOS measurement (Example 15); format: physicochemical; settings: for Particle size X50 after micronization / Particle size X90 after micronization: after micronization by Jet mill or ball mill without surfactant
Method: (§1) The dissolution test was carried out according to the paddle method of Korean Phramacopeia. The paddle rate was 75 rpm, the temperature of an effluent was 37° C., and a test solution was a mixture solution of pH 6.8, 1.5% Tween 80. First, the test solution was filtered through a […] Membrane filter and centrifuged. Supernatant fluid was taken, and the content of drug was analyzed by HPLC, and the amount of released drug was measured at different time points. The drugs used for the dissolution test are Compounds 1, 5, 44 and 51 provided in Table 1, and the extract set forth in the Korean Patent No. 10-818586 which contains Compound 58 over 60 wt % (‘Compound 58 Extract’). Microparticulation was carried out using Jet mill or ball mill without any surfactant. The particle size of compounds was determined by HELOS measurement.
Measurement of the particle size was carried out by putting approximately 3 ml of a sample into a cell for particle size measurement and measuring the particle size during 60 seconds per sample. The particle sizes before and after micronization are provided below.

[2] = Dissolution test, paddle method (Example 15); format: physicochemical; settings: for Increasing rate of dissolution rate of 12 hours: after versus before microparticulation; for Change of dissolution rate of micronized particles compared to before micronization: different time points, FIGS. 3 to 6, pH 6.8, 1.5% Tween 80, 37° C.; for Dissolution rate of 12 hours after microparticulation / Dissolution rate of 12 hours before microparticulation: paddle 75 rpm, 37° C., pH 6.8, 1.5% Tween 80; for Dissolution rate of 12 hours after microparticulation: after microparticulation (Jet mill or ball mill, no surfactant)
Method: Dissolution test was commonly carried out under the following condition.
as §1

[3] = Body weight change in ob/ob mice given suspensions of cryptotanshinone powder or micronized particles (Example 6); format: in vivo; settings: ob/ob male mice; 400 mg/kg PO once a day
Method: 1 g of a simply finely-divided powder of cryptotanshinone, and 1 g of each micronized particles of cryptotanshinone compound according to the procedures of Examples 1 to 3 were mixed with 10 mL of distilled water, and the resulting mixtures were processed in a sonicator for 30 min to prepare suspensions of the cryptotanshinone compounds. 400 mg/kg of these suspensions in terms of cryptotanshinone content was administered to ob/ob mice once a day and changes in the body weight (BW) of animals were examined.
For this purpose, 10-week-old ob/ob male mice (Jackson Lab) as an obese mouse model of type 2 diabetes were purchased from Orient Co., Ltd., Korea and were allowed to acclimate to a new environment of the breeding room for 10 days prior to experiments. Animals were fed a solid feed (P5053, Labdiet) as a laboratory animal chow. The ob/ob male mice were housed and allowed to acclimate to a new environment for 10 days, in a breeding room maintained at a temperature of 22±2° C., humidity of 55±5%, and a 12-h light/dark (L/D) cycle (light from 8:00 a.m. to 8:00 p.m.). […]

[4] = Particle size of micronized particles prepared in Examples 1 to 5; format: physicochemical; settings: cryptotanshinone prior to supercritical micronization
Method: In order to develop a supercritical micronization process, 5 g of cryptotanshinone having a particle size distribution of 1 to 100 μm and an average particle size of 30 μm, and 0.5 g of sodium lauryl sulfate were dissolved in 45 mL of methylene chloride. Thereafter, the resulting solution of cryptotanshinone in methylene chloride was injected at a flow rate of 1 to 2 mL/min via a nozzle orifice with a diameter of 1/16 inch into a reaction vessel which was set to a temperature of 30° C., 80 bar, and 2,000 rpm and was filled with liquefied carbon dioxide, whereas carbon dioxide was injected at a flow rate of 10 to 20 mL/min via a nozzle orifice with a diameter of 1/16 inch using an ISCO pump.
In order to recover precipitates of small-sized particles from the liquid carbon dioxide solution as an insoluble solvent in the reaction vessel, a volume of carbon dioxide which is 15-fold that of the reaction vessel was flowed to remove the remaining organic solvent and the pressure of the reaction vessel was reduced to recover micronized particles of cryptotanshinone. […]
Micronizing of cryptotanshinone was carried out using a Jet mill (SJ-100, Nisshin, Japan). […] Micronized particles were recovered and a particle size was determined in terms of particle diameter by […]. […]

[5] = Body weight change in DIO (diet-induced obesity) SD rats with varying dosages of micronized cryptotanshinone (Example 7); format: in vivo; settings: for BW loss / Final BW: high-fat diet, Jet mill-micronized with 0.2% SLS
Method: Each of formulations composed of a mixture of Jet mill-micronized cryptotanshinone at 25 mg/kg, 50 mg/kg and 100 mg/kg with 0.2% (w/w) sodium lauryl sulfate was administered daily for 28 days to DIO (diet-induced obesity) SD rats in which obesity was caused by high-fat diet for 4 weeks. As a control, a surfactant SLS at a concentration of 0.2% was suspended in distilled water and a suspension was then administered to animals.

| Molecule | Particle size X50 after micronization [1] | Particle size X90 after micronization [1] | Particle size X50 before micronization [1] | Particle size X90 before micronization [1] | Increasing rate of dissolution rate of 12 hours [2] [%] | Change of dissolution rate of micronized particles compared to before micronization [2] | Dissolution rate of 12 hours after microparticulation [2] [%] | Dissolution rate of 12 hours before microparticulation [2] [%] | Final BW [3] [g] | Average particle size [4] [μm] | Loss of body weight compared to the control group ([5]; 25, 50 and 100 mg/kg daily for 28 days, concentration-dependent) | BW loss ([5]; 25 mg/kg daily for 28 days) [%] | Final BW ([5]; 25 mg/kg daily for 28 days) [g] | BW loss ([5]; 50 mg/kg daily for 28 days) [%] | Final BW ([5]; 50 mg/kg daily for 28 days) [g] | BW loss ([5]; 100 mg/kg daily for 28 days) [%] | Final BW ([5]; 100 mg/kg daily for 28 days) [g] |
| --- | --- | --- | --- | --- | --- | --- | --- | --- | --- | --- | --- | --- | --- | --- | --- | --- | --- |
| CC1(C)CCC2=C(O1)c1ccccc1C(=O)C2=O [Compound 1, 7,8-dihydro-2,2-dimethyl-2H-naphtho(2,3-b)dihydropyran-7,8-dione] | X50 = 2.39 μm | X90 = 5.03 μm | X50 = 27.83 μm | X90 = 33.74 μm | 42 | increased significantly | 95.52 | 67.19 | – | – | – | – | – | – | – | – | – |
| C[C@H]1COC2=C1C(=O)C(=O)c1c2ccc2c1CCCC2(C)C [Simply finely-divided cryptotanshinone, cryptotanshinone] | – | – | – | – | – | – | – | – | 57.5 ± 1.3 | – | – | – | – | – | – | – | – |
| cryptotanshinone [Compound 58] | – | – | – | – | – | – | – | – | – | 30 | significant loss of body weight | 16.9 ± 3.8 | 589.0 ± 50.4 | 15.4 ± 3.7 | 578.8 ± 54.6 | 6.2 ± 5.5 | 529.8 ± 59.1 |

Second part, led by results:

| Particle size X50 after micronization [1] | Particle size X90 after micronization [1] | Particle size X50 before micronization [1] | Particle size X90 before micronization [1] | Increasing rate of dissolution rate of 12 hours [2] [%] | Change of dissolution rate of micronized particles compared to before micronization [2] | Dissolution rate of 12 hours after microparticulation [2] [%] | Dissolution rate of 12 hours before microparticulation [2] [%] | Molecule | Final BW [3] [g] | Average particle size [4] [μm] | Loss of body weight compared to the control group ([5]; 25, 50 and 100 mg/kg daily for 28 days, concentration-dependent) | BW loss ([5]; 25 mg/kg daily for 28 days) [%] | Final BW ([5]; 25 mg/kg daily for 28 days) [g] | BW loss ([5]; 50 mg/kg daily for 28 days) [%] | Final BW ([5]; 50 mg/kg daily for 28 days) [g] | BW loss ([5]; 100 mg/kg daily for 28 days) [%] | Final BW ([5]; 100 mg/kg daily for 28 days) [g] |
| --- | --- | --- | --- | --- | --- | --- | --- | --- | --- | --- | --- | --- | --- | --- | --- | --- | --- |
| X50 = 2.48 μm | X90 = 5.38 μm | X50 = 3.61 μm | X90 = 20.09 μm | 10 | increased significantly | 86.12 | 78.12 | CC1CC2=C(O1)c1ccccc1C(=O)C2=O (stereo not drawn) [Compound 5] | – | – | – | – | – | – | – | – | – |
| X50 = 2.41 μm | X90 = 24.57 μm | X50 = 3.15 μm | X90 = 22.41 μm | – | increased significantly | 41.05 | 13.81 | CC1OC2=C(C(=O)C(=O)c3c2ccc2c3CCCC2)C1(C)C (stereo not drawn) [Compound 44] | – | – | – | – | – | – | – | – | – |
| X50 = 3.05 μm | X90 = 13.48 μm | X50 = 5.08 μm | X90 = 21.97 μm | – | increased significantly | 51.3 | 24.08 | Cc1cc2c(c3ccccc13)C(=O)C(=O)C1=C2OC(C)C1(C)C (stereo not drawn) [Compound 51] | – | – | – | – | – | – | – | – | – |

Source: patent US20100209513A1, “PHARMACEUTICAL COMPOSITION CONTAINING MICRONIZED PARTICLES OF NAPHTHOQUINONE-BASED COMPOUND” (priority 2007, published 2010)
